Reference: ChEMBL document CHEMBL1201862, “PubChem BioAssay data set” (2004)
Activity calls are given as the source filed them.

Key:
[1] = target: Protein Wnt-3a (Mus musculus, UniProt P27467); assay: SAR analysis of small molecule antagonists of Gli-SUFU in a Wnt3a luminescent reporter assay.; format: functional
[2] = target: T1, Replicative DNA helicase DnaB (Mycobacterium tuberculosis, UniProt P9WMR3); assay: DnaB intein splicing inhibitors, dose response, biochemical, cell-free fluorescence (AID 449749); format: functional
T1 sequence (P9WMR3 whole entry): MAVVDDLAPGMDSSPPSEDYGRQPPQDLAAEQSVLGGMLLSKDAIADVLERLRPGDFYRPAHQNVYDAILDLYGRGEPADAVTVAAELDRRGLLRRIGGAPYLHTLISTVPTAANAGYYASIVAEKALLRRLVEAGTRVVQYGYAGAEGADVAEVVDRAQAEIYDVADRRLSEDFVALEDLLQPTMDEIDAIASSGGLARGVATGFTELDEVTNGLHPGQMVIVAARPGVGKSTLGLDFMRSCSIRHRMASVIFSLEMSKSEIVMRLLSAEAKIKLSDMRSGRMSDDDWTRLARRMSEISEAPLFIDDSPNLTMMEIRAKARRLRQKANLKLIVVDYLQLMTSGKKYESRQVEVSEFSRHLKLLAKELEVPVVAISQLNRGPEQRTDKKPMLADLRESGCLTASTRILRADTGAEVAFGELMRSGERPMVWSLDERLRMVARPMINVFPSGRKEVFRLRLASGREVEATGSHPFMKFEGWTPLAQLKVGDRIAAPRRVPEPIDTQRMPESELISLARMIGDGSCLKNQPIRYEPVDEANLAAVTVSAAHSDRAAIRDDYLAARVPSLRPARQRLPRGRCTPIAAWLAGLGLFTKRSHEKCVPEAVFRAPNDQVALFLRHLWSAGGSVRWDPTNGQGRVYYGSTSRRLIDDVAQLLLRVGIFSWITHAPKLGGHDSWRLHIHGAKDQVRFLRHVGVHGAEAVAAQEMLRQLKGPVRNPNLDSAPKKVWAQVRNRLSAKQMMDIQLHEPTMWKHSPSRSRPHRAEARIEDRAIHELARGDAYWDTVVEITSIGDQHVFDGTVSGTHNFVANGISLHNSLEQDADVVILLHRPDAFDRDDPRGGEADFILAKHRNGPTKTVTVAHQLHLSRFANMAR

[3] = ADAM10 inhibitors, peptide cleavage, dose response, biochemical, QFRET (AID 743254);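 also: ADAM10 enzyme with the DM2 quenched FRET peptide as substrate; EDANS fluorescence gain as the protease cuts the substrate; inhibitor potency against ADAM10 proteolytic activity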
[4] = target: Disintegrin and metalloproteinase domain-containing protein 17 (Homo sapiens, UniProt P78536); assay: ADAM17 protease inhibitors, dose response, counter-screen for ADAM10 exosite inhibitor project, biochemical, quenched FRET substrate (AID 743253)
[5] = target: T2, Protein RecA (Mycobacterium tuberculosis, UniProt P9WHJ3); assay: Fluorescence Cell-Free Homogeneous Dose Retest to Identify Inhibitors of RecA-Intein Splicing Activity. [Related pubchem assays (depositor defined):AID2097, AID2223, AID489010, AID492950]; format: functional
T2 sequence (P9WHJ3 whole entry): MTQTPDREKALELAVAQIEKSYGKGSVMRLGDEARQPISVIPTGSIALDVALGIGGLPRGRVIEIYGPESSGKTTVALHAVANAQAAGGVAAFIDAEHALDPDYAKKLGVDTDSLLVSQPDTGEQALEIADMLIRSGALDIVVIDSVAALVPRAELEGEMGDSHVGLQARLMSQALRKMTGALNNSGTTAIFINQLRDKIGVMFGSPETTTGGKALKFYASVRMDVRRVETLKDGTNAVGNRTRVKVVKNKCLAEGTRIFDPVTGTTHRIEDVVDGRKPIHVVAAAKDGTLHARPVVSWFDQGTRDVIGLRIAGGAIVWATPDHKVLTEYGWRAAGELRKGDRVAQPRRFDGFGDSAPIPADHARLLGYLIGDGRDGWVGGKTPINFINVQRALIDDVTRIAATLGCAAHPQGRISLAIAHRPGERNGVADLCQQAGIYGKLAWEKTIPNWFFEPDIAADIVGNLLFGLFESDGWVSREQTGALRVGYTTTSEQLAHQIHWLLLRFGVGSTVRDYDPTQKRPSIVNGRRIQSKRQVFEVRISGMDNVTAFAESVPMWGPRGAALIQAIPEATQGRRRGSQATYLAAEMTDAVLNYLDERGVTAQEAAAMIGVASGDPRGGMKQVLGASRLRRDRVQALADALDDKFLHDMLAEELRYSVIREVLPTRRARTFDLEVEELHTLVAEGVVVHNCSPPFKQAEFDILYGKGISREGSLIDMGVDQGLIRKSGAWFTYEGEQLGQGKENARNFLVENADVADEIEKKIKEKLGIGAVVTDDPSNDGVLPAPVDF

[6] = target: T3, Protein skinhead-1 (Caenorhabditis elegans, UniProt P34707); format: functional
T3 sequence (P34707 whole entry): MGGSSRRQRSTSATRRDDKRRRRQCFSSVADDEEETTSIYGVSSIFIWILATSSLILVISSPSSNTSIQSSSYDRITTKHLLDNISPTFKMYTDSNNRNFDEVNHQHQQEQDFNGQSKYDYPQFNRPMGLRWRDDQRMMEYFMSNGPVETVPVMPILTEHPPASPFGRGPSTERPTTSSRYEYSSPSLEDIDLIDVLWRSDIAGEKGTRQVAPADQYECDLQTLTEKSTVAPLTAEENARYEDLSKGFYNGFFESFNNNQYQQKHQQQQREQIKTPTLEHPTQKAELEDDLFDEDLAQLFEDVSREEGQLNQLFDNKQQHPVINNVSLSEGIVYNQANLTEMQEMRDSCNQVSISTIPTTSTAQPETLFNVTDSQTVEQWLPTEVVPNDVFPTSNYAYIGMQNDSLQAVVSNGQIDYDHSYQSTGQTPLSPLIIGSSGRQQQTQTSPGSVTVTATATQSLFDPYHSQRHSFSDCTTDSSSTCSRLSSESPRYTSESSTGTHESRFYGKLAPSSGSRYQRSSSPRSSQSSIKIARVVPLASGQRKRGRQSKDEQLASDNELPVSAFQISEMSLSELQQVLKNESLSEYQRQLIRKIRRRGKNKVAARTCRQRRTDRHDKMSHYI

[7] = target: T4, Oxysterols receptor LXR-beta (Homo sapiens, UniProt P55055); format: functional, cell-based;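 also: agonist activity at LXR measured by a cell-based luminescence readout across a dose range, run as a counterscreen for daf-12 agonists; HEK293 cells with Gal4-LXR fusion and GAL4-driven luciferase reporter; potency for activation of Gal4-LXR reporter so compounds are agonists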
T4 sequence (P55055 whole entry): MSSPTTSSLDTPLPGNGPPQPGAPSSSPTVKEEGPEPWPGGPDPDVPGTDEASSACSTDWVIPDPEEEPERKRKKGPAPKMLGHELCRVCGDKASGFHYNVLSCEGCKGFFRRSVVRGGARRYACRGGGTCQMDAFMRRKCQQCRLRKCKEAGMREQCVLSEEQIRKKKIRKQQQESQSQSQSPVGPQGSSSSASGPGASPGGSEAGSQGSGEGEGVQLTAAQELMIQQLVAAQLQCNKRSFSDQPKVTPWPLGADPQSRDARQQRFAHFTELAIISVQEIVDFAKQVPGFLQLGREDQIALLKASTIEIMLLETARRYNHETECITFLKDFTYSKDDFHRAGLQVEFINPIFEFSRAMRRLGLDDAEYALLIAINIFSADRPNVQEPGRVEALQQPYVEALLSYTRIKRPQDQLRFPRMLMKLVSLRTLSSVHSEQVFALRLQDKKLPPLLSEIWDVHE

[8] = HEK293 Cytotoxicity Assay Measured in Cell-Based System Using Plate Reader - 7071-01_Inhibitor_Dose_CherryPick_Activity_Set2.; format: functional
[9] = test system: HEK293; assay: HEK293T cell cytotoxicity, dose response, cytotoxicity control, ATP luminescence, cherry-pick samples (AID 687005); format: functional, cell-based; settings: Homo sapiens;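 also: cells exposed to compound for 48 hours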

Sequence of Protein Wnt-3a (P27467 whole entry): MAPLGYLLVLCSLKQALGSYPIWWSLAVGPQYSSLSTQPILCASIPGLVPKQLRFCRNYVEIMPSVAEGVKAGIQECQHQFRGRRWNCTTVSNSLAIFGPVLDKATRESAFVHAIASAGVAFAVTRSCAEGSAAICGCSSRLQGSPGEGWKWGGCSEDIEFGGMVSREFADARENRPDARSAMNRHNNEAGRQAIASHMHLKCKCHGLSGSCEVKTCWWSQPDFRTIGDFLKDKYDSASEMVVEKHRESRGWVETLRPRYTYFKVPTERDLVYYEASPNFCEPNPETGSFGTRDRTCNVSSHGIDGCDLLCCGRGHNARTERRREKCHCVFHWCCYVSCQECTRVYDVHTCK
Sequence of Disintegrin and metalloproteinase domain-containing protein 17 (P78536 whole entry, the tested form may be a part): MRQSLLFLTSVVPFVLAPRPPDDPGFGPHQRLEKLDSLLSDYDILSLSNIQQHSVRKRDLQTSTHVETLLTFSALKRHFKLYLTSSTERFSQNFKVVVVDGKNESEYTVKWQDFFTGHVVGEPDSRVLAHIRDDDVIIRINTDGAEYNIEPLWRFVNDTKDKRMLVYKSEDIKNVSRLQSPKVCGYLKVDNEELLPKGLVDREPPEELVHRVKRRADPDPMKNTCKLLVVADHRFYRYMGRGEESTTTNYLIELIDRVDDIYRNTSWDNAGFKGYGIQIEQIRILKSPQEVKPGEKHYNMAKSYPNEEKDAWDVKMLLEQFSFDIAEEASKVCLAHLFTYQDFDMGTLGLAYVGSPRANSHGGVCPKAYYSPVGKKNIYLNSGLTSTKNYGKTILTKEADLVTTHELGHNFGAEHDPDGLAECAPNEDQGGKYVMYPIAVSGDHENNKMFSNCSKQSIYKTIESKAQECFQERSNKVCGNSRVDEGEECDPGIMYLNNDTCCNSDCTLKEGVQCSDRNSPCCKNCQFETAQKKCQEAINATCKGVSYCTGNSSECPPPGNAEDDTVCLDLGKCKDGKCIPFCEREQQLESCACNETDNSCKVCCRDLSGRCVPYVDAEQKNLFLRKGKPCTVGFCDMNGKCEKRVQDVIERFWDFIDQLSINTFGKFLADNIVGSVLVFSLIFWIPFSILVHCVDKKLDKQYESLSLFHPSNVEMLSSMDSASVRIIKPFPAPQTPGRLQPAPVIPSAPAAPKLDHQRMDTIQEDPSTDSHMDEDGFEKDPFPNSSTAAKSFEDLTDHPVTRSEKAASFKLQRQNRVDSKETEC

O=C(Nc1cc(N2CCCCC2)ncn1)c1ccccc1F
IC50 [1]: < 0.0426 µM (active)

CCOC(=O)c1ccc(N2C(=O)c3[nH]nc(-c4ccco4)c3C2c2ccc([N+](=O)[O-])cc2)cc1 (stereo not given)
AC50 [2]: 2.92 µM (active)
IC50 [3]: 17 µM (inactive)
IC50 [4]: > 69.5 µM (inactive)
EC50 [5]: 56.2 µM (active)

Clc1ccc(OCCSc2ncccn2)c(Br)c1
IC50 [6]: 40.4 µM (active)
EC50 [7]: > 67.5 µM (inactive)

CCOC(=O)c1sc2nc3c(cc2c1N)COC(C)(CC)C3 (stereo not given)
EC50 [7]: > 67.5 µM (inactive)

C[C@@H]1CN([C@H](C)CO)C(=O)c2cccc(NC(=O)c3ccncc3)c2O[C@H]1CN(C)C(=O)Nc1ccc(C(F)(F)F)cc1
AC50 [8]: 27.7 µM (active)
AC50 [9]: 27.7 µM (active)
